US9115212B2, “Bifunctional peptide” (REGENTIS INTERNATIONAL, priority 2012, dated 2015)
Where a SMILES comes first, the peptide text is derived from it.

Key:
COL1A1 gene = assay: Gene expression of COL1A1 in fibroblast cultures (real-time PCR); assay type: cell-based, human; details: fibroblasts, 100 μg/ml, 24 h, normalised to GAPDH
Procedure: (§1) The gene expression of the type I and III collagens in cultures of fibroblasts was also tested in the presence of the different peptides (pept 1 to pept 5) at a concentration of 100 μg/ml.
(§2) After 24 h of treatment with different peptides, the RNAs were extracted from the cultures using a RNeasy® kit (QIAGEN), then re-transcribed into complementary DNAs (cDNAs) using the RT2 First Strand Kit from SABiosciences™.
(§3) Real-time PCR analyses were then performed using the Mx3000p thermocycler from Stratagene in a 96-well plate. Each sample was analyzed in triplicate. The CDNAs serve as matrices in a reaction mixture containing the RT2 SYBR® Green/ROX™ qPCR Master Mix reagents (SABiosciences™) and the sense and antisense primers specific for the gene to be amplified. The reading of the fluorescence was performed at the end of each cycle and analyzed by means of the MxPro software (Stratagene). The relative expression of the COL1A1 and COL3A1 genes of interest coding for type I and type III collagen was obtained by normalizing the amount of products for amplifying the gene being studied by the amount of DNA amplified from a “domestic” gene, in this case the RNA of the gene encoding for the glyceraldehyde-3-phosphate dehydrogenase (GAPDH). As from the number of cycles corresponding to an amplification with a 100% efficiency, the relative quantity of cDNAs studied was calculated using the 2-AACT method (Livak & Schmittgen, 2001).
(§4) The control (Ctrl) corresponds to the expression of the genes coding for both types of collagen when the fibroblasts are not treated.

COL3A1 gene = assay: Gene expression of COL3A1 in fibroblast cultures (real-time PCR); assay type: cell-based, human; details: fibroblasts, 100 μg/ml, 24 h; for gene expression of type III collagen (COL3A1): normalised to GAPDH
Procedure: as §1, §2, §3, §4

type I collagen = assay: Protein expression of type I collagen in dermal fibroblasts (Western Blot, ImageJ); assay type: cell-based, human; details: peptide 100 μg/ml, vs untreated control
Procedure: (§5) The dermal fibroblasts were isolated from abdomen skin biopsies obtained during surgery operations performed on healthy patients between 35 and 75 years of age.
(§6) After removing the epidermis, the fibroblasts were recovered by enzymatic digestion, then were cultured at 37° C. in DMEM (Dulbecco's Modified Eagle Medium) medium supplemented with 10% fetal calf serum and 1% penicillin/streptomycin.
(§7) The fibroblasts were then treated with the peptide having sequence […] (SEQ. ID NO. 1), or various fragments of this sequence, at a concentration of 100 μg/ml. The various fragments tested are as follows: • peptide 1 (pept 1): peptide having the sequence […] (SEQ. ID NO. 1), • peptide 2 (pept 2): sequence […] (SEQ. ID NO. 1), wherein N-terminal and C-terminal ends correspond to N and OH, respectively • peptide 3 (pept 3): (VGVAPG (SEQ. ID NO: 29))3, wherein N-terminal and C-terminal ends correspond to N and OH, respectively • peptide 4 (pept 4): RVRLIL (SEQ. ID NO. 32, wherein N-terminal and C-terminal ends correspond to N and OH, respectively • peptide 5 (pept 5): N-Gly-Ile-Leu-OH
The protein expression of the type I collagen and the type III collagen has then been shown by Western Blot and quantified by ImageJ. The results are shown respectively in the attached FIGS. 3A and 3B. The control (Ctrl) corresponds to the expression of type I and III collagen at the level of cells not treated with peptides. The experiments were performed in triplicate.

MMP-1 [1] = target: T1, MMP-1 (Homo sapiens, UniProt P03956); assay: MMP-1 activity on synthetic substrate DNP-Pro-Cha-Gly-Cys (Me)-His-Ala-Lys (N-Me-Abz)-NH2; assay type: biochemical
T1 sequence (P03956 100-469): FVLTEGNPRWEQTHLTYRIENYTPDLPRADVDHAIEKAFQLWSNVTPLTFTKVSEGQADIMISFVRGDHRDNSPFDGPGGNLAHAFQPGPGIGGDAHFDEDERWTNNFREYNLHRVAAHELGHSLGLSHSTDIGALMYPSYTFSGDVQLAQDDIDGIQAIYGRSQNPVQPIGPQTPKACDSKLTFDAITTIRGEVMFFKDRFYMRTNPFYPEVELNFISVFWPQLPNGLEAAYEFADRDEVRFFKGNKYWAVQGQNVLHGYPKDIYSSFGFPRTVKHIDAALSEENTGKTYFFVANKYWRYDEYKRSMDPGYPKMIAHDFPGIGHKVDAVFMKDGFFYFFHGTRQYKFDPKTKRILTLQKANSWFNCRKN
Procedure: The substrate of the MMP-1 that was used to test its activity in the presence of the peptide is a synthetic substrate, DNP-Pro-Cha-Gly-Cys (Me)-His-Ala-Lys (N-Me-Abz)-NH2.
A concentration of 80 ng/μl of MMP-1 was brought in the presence of 0.4 ng/μl of synthetic substrate, in the presence or not of bifunctional peptide concentrated at 10^−3, 10^−4 and 10^−5 M for 1 h.
More particularly, FIG. 7A represents a kinetics of hydrolysis of the synthetic substrate of the MMP-1 in the presence or absence (control) of the peptide at different concentrations. The enzymatic activity of the MMP-1 was evaluated by measuring the absorbance (DO) at 465 nm every 5 minutes for a period of 35 min.
FIG. 7B is a graphical representation of the dose-effect relationship between the activity of the MMP-1 and the concentration of bifunctional peptide used at time 15 min.
The Gly-Ile-Leu (GIL) sequence was selected by the inventors for its capability of occupying the P′1, P′2 and P′3 pockets of type I collagenase, the MMP-1. The activity of the latter has been tested on the synthetic substrate, the DNP-Pro-Cha-Gly-Cys (Me)-His-Ala-Lys(N-Me-Abz)-NH2, in the presence or absence of the peptide 5 having the Gly-Ile-Leu (GIL) sequence at concentrations of 10^−5, 10^−4 and 10^−3 M.

dermal fibroblasts = assay: Toxicity on dermal fibroblasts; assay type: cell-based; details: peptide concentrations up to 1 mg/ml
Procedure: (§8) According to an embodiment, the bifunctional peptide is used preferably at a concentration substantially between 10 μg/ml and 1 mg/ml. Indeed, no toxicity of the peptide according to the invention has been observed on dermal fibroblasts treated with peptide concentrations up to 1 mg/ml. In addition, studies conducted in order to find the toxicity genes through the SAM (Significance Analysis of Microarrays) statistical approach have shown that the cell death, the disruption of the conjunctive tissue and the tumor invasion are induced only from a high concentration of bifunctional peptide, higher than 1 mg/ml.

urokinase [2] = target: T2, urokinase (Homo sapiens, UniProt P00749); assay: Cleavage of the bifunctional peptide by the urokinase (HPLC); details: excess of urokinase, peptide 0.45 mM
Procedure: At the pericellular level, an excess of urokinase was observed, of about 10^−4 M. The peptide could thus be cleaved by the urokinase, the latter acting in particular at the level of the arginine residues (Arg) of the portion B of the peptide according to the invention.
Studies were conducted by HPLC on a Chromolith Jupiter C18 column (50×4.6 mm), and applying a linear gradient of 0.1% TFA of acetonitrile in 0.1% TFA of water, 0 to 100% for 100 min. […] However, after the action of an excess of urokinase on the bifunctional peptide (0.45 mM), the spectral peak was different; indeed, the new peak was eluted at 20 min, thus characterizing a cleavage of the bifunctional peptide by the urokinase (FIG. 8B).

type III collagen = assay: Protein expression of type III collagen in dermal fibroblasts (Western Blot, ImageJ); assay type: cell-based, human; details: peptide 100 μg/ml
Procedure: as §5, §6, §7
The protein expression of the type I collagen and the type III collagen has then been shown by Western Blot and quantified by ImageJ. The results are shown respectively in the attached FIGS. 3A and 3B. […]

toxicity genes = assay: Toxicity genes through the SAM (Significance Analysis of Microarrays) statistical approach; assay type: cell-based
Procedure: as §8

[3] = system: type I and type III collagen; assay: Collagen expression depending on the age of the patients; assay type: cell-based, human; details: dermal fibroblasts from patients
Procedure: Dermal fibroblasts from younger or older patients were cultured and the bifunctional peptide according to the invention having the sequence […] (SEQ. ID NO. 1) has been tested as to the protein and gene expression of type I and type III collagen. The results obtained as regards the protein expression of the two types of collagen are visible in FIG. 5.

MMP-1 [4] = target: T1, MMP-1; assay: MMP-1 activity on natural substrate, collagen fibers of human dermis (cuts of skin, immunostaining); details: APMA-activated MMP-1, peptide 100 μg/ml, 3 h
Procedure: The effects of the peptide according to the invention were also tested on the activity of the MMP-1 in the presence of its natural substrate, i.e. the collagen fibers of human dermis.
To this end, the MMP-1 has previously been activated by APMA (4-aminophenylmercuric acetate) at 20 mM for 1 h30 at 37° C. The so activated MMP-1 was then deposited on cuts of skin having a thickness of 5μ in the presence or absence of the peptide according to the invention (100 μg/ml). After 3 h, the cuts of skin were immunostained, in order to reveal the presence of type I and III collagen, then observed by confocal microscopy. […] On the other hand, in the presence of the bifunctional peptide, the action of said MMP-1 was inhibited; indeed, the collagens I and III were detected.

urokinase [5] = target: T2, urokinase; assay: Urokinase activity on synthetic substrate S2444; assay type: biochemical
Procedure: The activity of the urokinase on its synthetic substrate, D-Glu-Gly-Arg+NHPhNO2 L-Pyroglutamyl-glycyl-L-arginine-p-Nitroaniline hydrochloride (2444) has been tested in the presence and absence of the peptide according to the invention at different concentrations.
A kinetics of hydrolysis of the substrate S2444 […] by the urokinase (9.25*10^−6 mM) was carried out in the presence of the bifunctional peptide having the sequence […] (SEQ. ID NO. 1) and concentrated at 10^−3, 10^−4 and 10^−5 M for 1 hour. The control corresponds to the kinetics in the absence of peptide. The enzyme activity was evaluated by measuring the absorbance (DO) at 405 nm every 5 minutes for a period of 35 min.
FIG. 6B is a graphical representation of the dose/effect relationship between the activity of the urokinase and the concentration of the bifunctional peptide used at time 15 min. The dotted line in the figure permits to determine the IC50, i.e. the peptide concentration required to reduce the activity of the urokinase by 50%.

Row | effect on the activity of the MMP-1 on its synthetic substrate (MMP-1 [1]; 10^−5, 10^−4 and 10^−3 M) | IC50 (MMP-1 [1]; synthetic substrate, time 15 min, read-out: IC50 MMP-1 activity, peptide concentration (converted)) | Compound | gene expression of type I collagen (COL1A1) (COL1A1 gene) | gene expression of type III collagen (COL3A1) (COL3A1 gene) | stimulation of the protein expression of the type I collagen (type I collagen) | toxicity on dermal fibroblasts (dermal fibroblasts) | cleavage by urokinase (urokinase [2]) | increase in the synthesis of type III collagen compared to fibroblasts treated with pept 3 (type III collagen; relative to pept 3) | production of type III collagen (type III collagen; vs untreated control) | concentration from which cell death, disruption of the conjunctive tissue and tumor invasion are induced (toxicity genes) | synthesis of type III collagen (gene expression) with respect to cells treated with peptide 3 (COL3A1 gene; relative to peptide 3) | action on the synthesis of collagen depending on the age of the patients [3] | action of MMP-1 on collagens I and III of cuts of skin (MMP-1 [4]) | mode of urokinase inhibition (urokinase [5])
1 | – | – | RVRLIL [pept 4, ID NO; 32] | no effect | no effect | do not permit the stimulation | – | – | – | – | – | – | – | – | –
2 | – | – | VGVAPGVAVAPGVAVAPGRVRLGIL [pept 2] | stimulate | stimulate | 30% | – | – | – | – | – | – | – | – | –
3 | decreases in a dose-dependent way | 70.7 µM | CC[C@H](C)[C@H](NC(=O)CN)C(=O)N[C@@H](CC(C)C)C(=O)O [pept 5, N-Gly-Ile-Leu-OH] (H-Gly-Ile-Leu-OH) | no effect | no effect | do not permit the stimulation | – | – | – | – | – | – | – | – | –
4 | – | – | (VGVAPG (SEQ. ID NO: 29))3 [pept 3] | stimulate | stimulate | 30% | – | – | – | – | – | – | – | – | –
5 | – | – | CC[C@H](C)[C@H](NC(=O)CNC(=O)[C@H](CC(C)C)NC(=O)[C@H](CCCNC(=N)N)NC(=O)[C@@H](NC(=O)[C@H](CCCNC(=N)N)NC(=O)CNC(=O)[C@@H]1CCCN1C(=O)[C@H](C)NC(=O)[C@@H](NC(=O)[C@H](C)NC(=O)[C@@H](NC(=O)CNC(=O)[C@@H]1CCCN1C(=O)[C@H](C)NC(=O)[C@@H](NC(=O)[C@H](C)NC(=O)[C@@H](NC(=O)CNC(=O)[C@@H]1CCCN1C(=O)[C@H](C)NC(=O)[C@@H](NC(=O)CNC(=O)[C@@H](N)C(C)C)C(C)C)C(C)C)C(C)C)C(C)C)C(C)C)C(C)C)C(=O)N[C@@H](CC(C)C)C(=O)O [pept 1] (H-VGVAPGVAVAPGVAVAPGRVRLGIL-OH) | stimulate | stimulate | 30% | no toxicity | cleavage | 36% | more than doubled | higher than 1 mg/ml | increase | greater when the fibroblasts proceed from older patients | inhibited | competitive inhibitor
